Patent US20240261296A1, “THERAPEUTIC MODALITIES FOR INHIBITING PANCREATIC BETA CELL IMPAIRMENT AND TREATING DIABETES” (Hadasit Medical Research Serices & Development Ltd., priority 2021, published 2024)
Entries after “also recorded” stand apart in the source; their conditions may differ.

Tests used:
Type in all cases: in vivo
db/db mice [1] = test: fasting blood glucose (FBG) in db/db and control mice
Text: Fasting blood glucose (FBG) concentrations in each of the treated groups were also compared following 4- and 8-weeks treatment as described in Example 9. Results for the 4-weeks treatment of the control mice and the db/db mice are presented in FIGS. 20A-20B respectively and for the 8-weeks treatment of the control mice and the db/db mice are presented in FIGS. 20C-20D, respectively; each treatment is graphically represented as described in Example 9.
FBG concentrations. FBG concentrations in each of the treated groups, vehicle, L-798106, C17 and C20, was compared following 4- and 8-weeks treatment essentially as described in Example 11. Results for the 4-weeks treatment of the control mice and the db/db mice are presented in FIGS. 29A-29B respectively and for the 8-weeks treatment of the control mice and the db/db mice are presented in FIGS. 29C-29D, in which, each treatment is graphically represented as described in Example 14, The numbers of tested mice are as follows: control mice (n=10-15), db/db mice (n=10).

[2] = blood insulin concentrations by serum C-peptide ELISA; details: 8 weeks oral treatment; vs vehicle-treated diabetic mice
Experimental: At the end of the 8 week-long period of treatment as described in Example 9, mice were sacrificed and blood samples were collected, and analyzed for different parameters as detailed below.
Blood insulin concentrations.
Blood insulin concentrations. Following 8 weeks of treatment, blood samples were collected and the levels of insulin in the collected sera were assessed essentially as described in Example 12. The results are presented in FIG. 28, in which the different test groups as presented in FIG. 28 are represented as described in Example 14 and “ns” indicates non-significant differences. The numbers of tested mice are as follows: vehicle (n=10), L-798106 (n=10), C17 (n=5), C20 (n=5).

[3] = blood insulin levels in C57Bl/6 mice (ELISA)
Experimental: B. For measurements of blood insulin levels, insulin was measured in blood obtained from the vein tail of C57Bl/6 mice (n=8/group) 24 h (t24) after the third gavage with vehicle (Control-Saline); 3 mg/kg/day Compound C5; Compound C13 or the EP3 antagonist L-798106 (total 9 mg/kg) using ELISA mouse insulin kit (Mercodia). Five samples randomly chosen from each group were measured.
B. Blood insulin levels: Insulin was measured in sera obtained from mice injected with either Saline/DMSO (control), Compound 5 (C5); Compound C13 (C13) or L-798106, using ELISA mouse insulin kit according to the manufacturer's instructions (Mercodia). Five samples randomly chosen from each group were measured. […] Similarly, to normal blood glucose, the mice keep their blood insulin concentrations within the normal range.

[4] = glycemia evaluation in C57Bl/6 mice; details: for blood glucose concentration: IP 3 mg/kg, t0, 5 h, 24 h; for blood glucose concentrations: oral gavage 3 mg/kg/day for 3 days, t0, 5 h after each gavage, 24 h after last
Experimental: Male mice (n=8 per group) were assigned to the following test groups. A dosage of 3 mg/kg/mouse was administered daily for 3 consecutive days in 200 μl of:
Group A: saline and DMSO carrier (referred to throughout the drawings and examples describing the in vivo experiment as “Control-Saline”, “Vehicle”, “Saline” or “Control”), at the equivalent concentration administered the other test groups (2.5%). Group B: Compound 1b (C5) at 3 mg/Kg: (total of 9 mg/Kg). Group C: Compound 1a (C13) at 3 mg/Kg: (total of 9 mg/Kg). Group D: L-798106 at 3 mg/Kg: (total of 9 mg/Kg).
A. For glycemia evaluation, blood glucose was measured from the vein tail at the following time points (t(h)—time in hours): t=0—before gavage; t=5 h—following each gavage on days 1, 2 and 3 (5G1, 5G2 and 5G3, respectively); and t=24 h—after the last gavage (24G3).
A. Glycemia evaluation: Glucose concentration was measured in blood obtained from the vein tail of C57Bl/6 mice (n=12/group). Results are represented in FIGS. 13A-13D, in which, t(h) represents time in hours as follows: before injection (t0), at time 5 h (t5) and 24 h (t24) after injection of 200 μl saline/DMSO (FIG. 13A); of 3 mg/kg of C5 (FIG. 13B); C13 (FIG. 13C); or L-798106 (FIG. 13D), by using Accu-Chek performa glucometer.

db/db mice [5] = test: intraperitoneal glucose tolerance test (IPGTT)
Experimental: Lepr^db/db homozygotes (db/db) and heterozygote Lepr^db/+ (wild type) mice were treated daily with 2.5 mg/kg/day oral administration of the Vehicle, the commercial EP3 antagonist L-798106 and the compounds C5 and C13 for 8 weeks, as described in Example 9. A glucose tolerance test (Intraperitoneal glucose tolerance test, IPGTT) was performed following four weeks and eight weeks of the onset of treatment, as follows. Glucose (1 g/kg) was injected following 8 hours of fasting, and blood glucose was measured at baseline and at 30-, 60-, 90- and 120-minutes post glucose administration.
Heterozygote (wild type) and diabetic db/db mice were treated daily with the Vehicle, L-798106 and the compounds C17 and C20 for 8 weeks, essentially as described in Example 9. A glucose tolerance test (IPGTT) was performed essentially as described in Example 10.

db/db mice [6] = test: Insulin Tolerance Test (ITT); details: 8 weeks oral treatment; for glucose levels after insulin injection (insulin sensitivity), db/db mice: 0.75 U/kg insulin, all time points, vs vehicle
Experimental: An Insulin Tolerance Test (ITT) was conducted to determine the effect of the test compounds on insulin resistance, following oral administration of Vehicle or the tested compounds as described in Example 9. To this end, the different treated groups were further subjected to a subsequent 5-hour fast and then injected with 0.75 U/kg insulin. Blood glucose was measured at the time of insulin injection (baseline level) and at the indicated time intervals thereafter. Blood glucose levels and AUC of the wild-type mice are presented in FIGS. 19A-19B respectively, and blood glucose levels and AUC of the db/db mice are presented in FIGS. 19C-19D respectively. The different test groups as presented in FIGS. 19A-19D are represented as described in Example 9.
To determine the effect of the C17 and C20 compounds on insulin resistance, an ITT was conducted essentially as described in Example 11. Blood glucose levels and AUC of the wild-type mice are presented in FIGS. 27A-27B respectively (n=5-15), and blood glucose levels and AUC of the db/db mice are presented in FIGS. 27C-27D respectively (n=5-10). The different test groups as presented in FIGS. 27A-27D are represented as described in Example 14.

[7] = 4 weeks of treatment, vs vehicle
[8] = oral 3 mg/kg/day (total 9 mg/kg), 24 h after third gavage
[9] = 8 weeks oral 2.5 mg/kg/day, glucose 1 g/kg, all time points, vs vehicle

Compound | FBG in db/db mice (db/db mice [1]; [7]) | FBG in control mice (db/db mice [1]; 8 weeks of treatment) | blood insulin levels (serum C-peptide) in diabetic mice [2] | blood insulin levels ([3]; IP single dose 3 mg/kg) | blood insulin levels [3, 8] | blood glucose concentration [4] | blood glucose concentrations [4] | hyperglycemia in IPGTT, db/db mice (db/db mice [5]; [9]) | hyperglycemia in IPGTT, db/db mice (db/db mice [5]; four weeks of treatment) | glucose levels after insulin injection (insulin sensitivity), db/db mice (db/db mice [6]) | FBG in db/db mice (db/db mice [1]; 8 weeks of treatment) | hyperglycemia in IPGTT, db/db mice (db/db mice [5]; 8 weeks oral 2.5 mg/kg/day, glucose 1 g/kg, all time points, vs vehicle, 2.5 mg/kg/day) | baseline glucose levels in ITT (db/db mice [6]; 5-hour fast)
CC[C@H](C)c1ccc(S(=O)(=O)Nc2ccccc2C(=O)N2C[C@@H](C)O[C@@H](C)C2)cc1 [Compound C5, 4-((S)-sec-butyl)-N-(2-((2S,6R)-2,6-dimethylmorpholine-4-carbonyl)phenyl)benzenesulfonamide] | significant decrease in FBG | decrease in FBG in the control mice, although to a much lesser extent | the differences did not reach statistical significance | no statistically significant differences | no statistically significant differences | no differences were observed | no significant alterations | significantly alleviated hyperglycemia | reduction of hyperglycemia could already be seen | Improve Insulin Sensitivity |  |  | 
CC[C@@H]1CC[C@H](C)N1C(=O)c1cccc(NS(=O)(=O)c2ccc(C)c(F)c2)c1 [Compound C13, N-(3-((2R,5S)-2-ethyl-5-methylpyrrolidine-1-carbonyl)phenyl)-3-fluoro-4-methylbenzenesulfonamide] | significant decrease in FBG | decrease in FBG in the control mice, although to a much lesser extent | the differences did not reach statistical significance | no statistically significant differences | no statistically significant differences | no differences were observed | no significant alterations | significantly alleviated hyperglycemia | reduction of hyperglycemia could already be seen | Improve Insulin Sensitivity | significantly more pronounced |  | 
COc1ccc(Br)cc1S(=O)(=O)NC(=O)/C=C/c1ccccc1Cc1ccc2ccccc2c1 [Compound L-798106, (2E)-N-[(5-bromo-2-methoxyphenyl)sulfonyl]-3-[2-(2-naphthalenylmethyl)phenyl]-2-propenamide, reference compound] | significant decrease in FBG | decrease in FBG in the control mice, although to a much lesser extent | the differences did not reach statistical significance | no statistically significant differences | no statistically significant differences | no differences were observed | no significant alterations |  | reduction of hyperglycemia could already be seen | significant decrease in glucose levels | significantly more pronounced | significantly alleviated hyperglycemia; also recorded: appeared to be statistically more significant | reduced baseline glucose levels
